According to patent US20120122860A1, “SOLID FORMS OF SULFONAMIDES AND AMINO ACIDS” (Plexxikon, Inc., priority 2009, published 2012):

Assays:
Src = Src (Homo sapiens, UniProt P12931); experiment: Kinase activity assay, Src
C-Raf = C-Raf (Homo sapiens, UniProt P04049); experiment: Kinase activity assay, C-Raf
B-Raf V600E = B-Raf V600E (Homo sapiens, UniProt P15056, V600E); experiment: Kinase activity assay, B-Raf V600E; format: biochemical; conditions: read-out: activity toward kinase B-Raf V600E, IC50
B-Raf V600E, sequence (P15056 whole entry V600E): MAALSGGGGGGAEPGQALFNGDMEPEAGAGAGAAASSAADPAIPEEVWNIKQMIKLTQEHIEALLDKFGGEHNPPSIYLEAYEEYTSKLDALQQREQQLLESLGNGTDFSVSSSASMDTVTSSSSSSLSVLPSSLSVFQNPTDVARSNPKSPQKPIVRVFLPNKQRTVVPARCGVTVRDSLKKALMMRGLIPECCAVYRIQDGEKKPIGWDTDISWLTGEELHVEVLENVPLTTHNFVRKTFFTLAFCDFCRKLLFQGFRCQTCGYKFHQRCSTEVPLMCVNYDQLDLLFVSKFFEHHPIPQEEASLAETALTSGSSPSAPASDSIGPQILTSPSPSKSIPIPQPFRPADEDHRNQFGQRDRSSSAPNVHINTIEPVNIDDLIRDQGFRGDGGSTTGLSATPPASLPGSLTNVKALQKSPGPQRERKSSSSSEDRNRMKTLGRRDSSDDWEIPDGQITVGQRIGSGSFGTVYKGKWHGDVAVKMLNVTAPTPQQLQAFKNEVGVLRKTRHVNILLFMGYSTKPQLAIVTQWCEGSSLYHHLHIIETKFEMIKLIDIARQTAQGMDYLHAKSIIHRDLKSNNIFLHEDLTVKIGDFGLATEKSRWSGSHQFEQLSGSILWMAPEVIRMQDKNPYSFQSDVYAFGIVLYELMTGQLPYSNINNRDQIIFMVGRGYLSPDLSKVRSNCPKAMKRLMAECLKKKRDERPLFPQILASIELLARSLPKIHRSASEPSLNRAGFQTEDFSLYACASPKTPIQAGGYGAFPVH

B-Raf = B-Raf (Homo sapiens, UniProt P15056); experiment: Kinase activity assay, B-Raf; format: biochemical; conditions: read-out: activity toward kinase B-Raf, IC50
B-Raf, sequence (P15056 whole entry): as the sequence (P15056 whole entry V600E) above, with E600V counted along it

A-Raf = biological target: T1, A-Raf (Homo sapiens, UniProt P10398); experiment: Kinase activity assay, A-Raf
T1 sequence (P10398 1-606): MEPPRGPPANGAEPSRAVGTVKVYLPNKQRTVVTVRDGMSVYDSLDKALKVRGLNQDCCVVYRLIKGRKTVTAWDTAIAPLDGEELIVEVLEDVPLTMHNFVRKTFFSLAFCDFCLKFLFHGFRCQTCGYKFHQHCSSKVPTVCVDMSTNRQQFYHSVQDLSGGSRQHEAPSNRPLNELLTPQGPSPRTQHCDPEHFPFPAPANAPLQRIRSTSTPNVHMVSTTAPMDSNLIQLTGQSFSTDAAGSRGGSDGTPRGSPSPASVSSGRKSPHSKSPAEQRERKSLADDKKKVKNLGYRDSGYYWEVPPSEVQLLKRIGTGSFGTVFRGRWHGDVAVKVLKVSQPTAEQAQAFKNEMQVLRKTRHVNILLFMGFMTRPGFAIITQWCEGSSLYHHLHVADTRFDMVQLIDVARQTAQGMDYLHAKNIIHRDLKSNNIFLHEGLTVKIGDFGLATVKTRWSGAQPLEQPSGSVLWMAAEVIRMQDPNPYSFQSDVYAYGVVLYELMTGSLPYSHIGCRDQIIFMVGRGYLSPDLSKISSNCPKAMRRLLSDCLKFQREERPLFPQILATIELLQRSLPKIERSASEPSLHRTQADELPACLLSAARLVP

Kit = Kit (Homo sapiens, UniProt P10721); experiment: Kinase activity assay, Kit
Kit, sequence (P10721 26-976): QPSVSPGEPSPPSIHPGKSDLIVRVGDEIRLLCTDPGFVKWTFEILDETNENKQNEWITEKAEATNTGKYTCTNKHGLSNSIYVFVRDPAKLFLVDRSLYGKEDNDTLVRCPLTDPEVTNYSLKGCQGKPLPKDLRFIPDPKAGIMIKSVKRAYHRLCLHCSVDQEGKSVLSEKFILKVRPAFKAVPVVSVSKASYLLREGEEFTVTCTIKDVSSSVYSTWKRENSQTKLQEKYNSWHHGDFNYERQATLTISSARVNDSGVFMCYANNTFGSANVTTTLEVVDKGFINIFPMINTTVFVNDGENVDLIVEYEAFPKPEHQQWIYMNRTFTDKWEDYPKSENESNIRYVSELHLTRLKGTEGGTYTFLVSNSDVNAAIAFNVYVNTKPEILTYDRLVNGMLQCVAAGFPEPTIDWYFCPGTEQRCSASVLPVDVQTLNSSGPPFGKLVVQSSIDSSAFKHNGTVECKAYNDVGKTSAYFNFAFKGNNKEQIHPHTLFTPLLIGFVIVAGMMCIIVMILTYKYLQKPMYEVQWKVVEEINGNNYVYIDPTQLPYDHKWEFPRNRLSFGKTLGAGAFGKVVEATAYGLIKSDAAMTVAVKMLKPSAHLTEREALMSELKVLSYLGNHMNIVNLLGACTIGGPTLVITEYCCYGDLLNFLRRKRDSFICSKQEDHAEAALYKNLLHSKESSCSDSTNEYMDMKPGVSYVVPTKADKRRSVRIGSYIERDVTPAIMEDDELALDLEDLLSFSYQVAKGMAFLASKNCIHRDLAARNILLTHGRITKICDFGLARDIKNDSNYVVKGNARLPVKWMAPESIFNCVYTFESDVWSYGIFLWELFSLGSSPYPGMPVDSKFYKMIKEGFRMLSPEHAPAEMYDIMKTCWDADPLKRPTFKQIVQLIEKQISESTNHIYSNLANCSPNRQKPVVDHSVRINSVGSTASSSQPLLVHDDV

Kdr = Kdr (Homo sapiens, UniProt P35968); experiment: Kinase activity assay, Kdr
Kdr, sequence (P35968 20-1356): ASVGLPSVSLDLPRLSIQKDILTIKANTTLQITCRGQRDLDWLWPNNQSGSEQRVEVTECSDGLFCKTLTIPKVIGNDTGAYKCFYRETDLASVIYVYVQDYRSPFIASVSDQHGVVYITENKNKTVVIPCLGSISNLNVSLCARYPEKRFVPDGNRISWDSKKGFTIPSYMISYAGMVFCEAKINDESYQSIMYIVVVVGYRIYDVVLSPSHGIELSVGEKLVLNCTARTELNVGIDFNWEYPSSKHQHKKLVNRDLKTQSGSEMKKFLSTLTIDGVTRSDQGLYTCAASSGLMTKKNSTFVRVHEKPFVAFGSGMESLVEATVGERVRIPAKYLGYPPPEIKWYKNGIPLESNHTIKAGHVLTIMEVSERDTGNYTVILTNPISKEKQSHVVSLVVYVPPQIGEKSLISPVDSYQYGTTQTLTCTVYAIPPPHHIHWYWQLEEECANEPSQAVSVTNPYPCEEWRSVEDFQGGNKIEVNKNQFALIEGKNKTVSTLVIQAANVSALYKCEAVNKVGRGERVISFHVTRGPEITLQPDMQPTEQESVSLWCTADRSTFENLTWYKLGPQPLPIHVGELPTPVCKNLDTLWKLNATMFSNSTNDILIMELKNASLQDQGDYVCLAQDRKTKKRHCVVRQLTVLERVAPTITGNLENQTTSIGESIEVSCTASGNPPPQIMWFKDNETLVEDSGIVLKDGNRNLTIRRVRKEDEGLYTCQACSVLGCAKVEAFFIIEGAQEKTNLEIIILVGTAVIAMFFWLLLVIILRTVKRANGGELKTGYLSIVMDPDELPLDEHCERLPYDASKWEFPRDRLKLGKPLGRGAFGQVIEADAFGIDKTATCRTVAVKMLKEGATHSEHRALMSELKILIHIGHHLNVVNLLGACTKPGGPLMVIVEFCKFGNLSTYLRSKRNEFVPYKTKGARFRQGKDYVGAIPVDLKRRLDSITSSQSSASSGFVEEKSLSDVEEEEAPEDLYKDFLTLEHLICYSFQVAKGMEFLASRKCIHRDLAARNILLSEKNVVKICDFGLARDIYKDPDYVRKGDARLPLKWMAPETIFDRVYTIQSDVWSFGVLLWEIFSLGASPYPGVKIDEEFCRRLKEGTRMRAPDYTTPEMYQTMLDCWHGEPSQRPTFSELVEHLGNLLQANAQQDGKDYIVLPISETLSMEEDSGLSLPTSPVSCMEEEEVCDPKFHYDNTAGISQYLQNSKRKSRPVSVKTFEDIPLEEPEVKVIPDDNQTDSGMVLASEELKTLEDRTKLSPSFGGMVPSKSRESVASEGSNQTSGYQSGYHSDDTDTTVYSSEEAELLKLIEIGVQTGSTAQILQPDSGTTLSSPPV

Measured: IC50

C-Raf, sequence (P04049 whole entry): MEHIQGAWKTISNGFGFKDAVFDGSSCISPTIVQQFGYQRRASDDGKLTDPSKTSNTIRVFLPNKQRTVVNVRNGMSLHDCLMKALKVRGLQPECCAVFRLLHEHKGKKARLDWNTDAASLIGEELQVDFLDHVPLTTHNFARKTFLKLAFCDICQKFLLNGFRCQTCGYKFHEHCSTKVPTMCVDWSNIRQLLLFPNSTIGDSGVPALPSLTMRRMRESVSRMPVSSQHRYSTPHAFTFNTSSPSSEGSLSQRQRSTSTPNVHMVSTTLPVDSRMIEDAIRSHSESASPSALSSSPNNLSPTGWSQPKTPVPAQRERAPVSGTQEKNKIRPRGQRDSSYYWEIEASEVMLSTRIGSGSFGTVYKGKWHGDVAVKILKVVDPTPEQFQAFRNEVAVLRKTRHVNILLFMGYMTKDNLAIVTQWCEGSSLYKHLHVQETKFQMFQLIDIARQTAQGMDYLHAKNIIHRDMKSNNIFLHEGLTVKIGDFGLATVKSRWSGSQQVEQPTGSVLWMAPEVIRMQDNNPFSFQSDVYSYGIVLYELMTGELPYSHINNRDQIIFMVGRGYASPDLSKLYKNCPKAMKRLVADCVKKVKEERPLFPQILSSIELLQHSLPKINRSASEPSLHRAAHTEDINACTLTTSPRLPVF
Src, sequence (P12931 whole entry): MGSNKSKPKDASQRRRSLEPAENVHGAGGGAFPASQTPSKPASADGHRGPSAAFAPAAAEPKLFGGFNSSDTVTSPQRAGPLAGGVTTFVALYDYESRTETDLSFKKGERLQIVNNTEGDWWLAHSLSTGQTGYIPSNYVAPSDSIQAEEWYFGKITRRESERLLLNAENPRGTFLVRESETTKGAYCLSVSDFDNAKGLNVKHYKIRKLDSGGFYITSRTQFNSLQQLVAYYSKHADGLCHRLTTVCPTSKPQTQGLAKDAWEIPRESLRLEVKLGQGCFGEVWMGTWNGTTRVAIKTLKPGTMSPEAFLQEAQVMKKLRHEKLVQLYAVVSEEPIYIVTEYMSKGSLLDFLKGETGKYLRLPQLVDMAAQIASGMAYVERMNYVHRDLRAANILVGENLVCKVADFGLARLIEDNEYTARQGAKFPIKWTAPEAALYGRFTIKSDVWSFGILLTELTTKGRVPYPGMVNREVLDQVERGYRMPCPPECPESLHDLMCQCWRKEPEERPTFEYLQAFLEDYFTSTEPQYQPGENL

N#Cc1ccnc2[nH]cc(C(=O)c3c(F)ccc(NS(=O)(=O)c4cccc(F)c4)c3F)c12 [P-2039, N-[3-(4-Cyano-1H-pyrrolo[2,3-b]pyridine-3-carbonyl)-2,4-difluoro-phenyl]-3-fluoro-benzenesulfonamide]
not listed: Kdr
≤ 10 µM: all other assays above

CC(C)CS(=O)(=O)Nc1ccc(F)c(C(=O)c2c[nH]c3nccc(Cl)c23)c1F [P-2318, 2-Methyl-propane-1-sulfonic acid [3-(4-chloro-1H-pyrrolo[2,3-b]pyridine-3-carbonyl)-2,4-difluoro-phenyl]-amide]
not listed: Kdr
≤ 10 µM: all other assays above

CCC(C)S(=O)(=O)Nc1ccc(F)c(C(=O)c2c[nH]c3nccc(Cl)c23)c1F (stereo not drawn) [P-2319, Butane-2-sulfonic acid [3-(4-chloro-1H-pyrrolo[2,3-b]pyridine-3-carbonyl)-2,4-difluoro-phenyl]-amide]
not listed: B-Raf
≤ 10 µM: all other assays above

CCC(C)S(=O)(=O)Nc1ccc(F)c(C(=O)c2c[nH]c3nccc(C#N)c23)c1F (stereo not drawn) [P-2321, Butane-2-sulfonic acid [3-(4-cyano-1H-pyrrolo[2,3-b]pyridine-3-carbonyl)-2,4-difluoro-phenyl]-amide]
not listed: Kit
≤ 10 µM: all other assays above

N#Cc1ccnc2[nH]cc(C(=O)c3c(F)ccc(NS(=O)(=O)CCC(F)(F)F)c3F)c12 [P-2332, 3,3,3-Trifluoro-propane-1-sulfonic acid [3-(4-cyano-1H-pyrrolo[2,3-b]pyridine-3-carbonyl)-2,4-difluoro-phenyl]-amide]
not listed: Kit | Kdr
≤ 10 µM: all other assays above

N#Cc1cnc2[nH]cc(C(=O)c3c(F)ccc(NS(=O)(=O)CC(F)(F)F)c3F)c2c1 [P-2336, 2,2,2-Trifluoro-ethanesulfonic acid [3-(5-cyano-1H-pyrrolo[2,3-b]pyridine-3-carbonyl)-2,4-difluoro-phenyl]-amide]
not listed: Kit | Kdr
≤ 10 µM: all other assays above

N#Cc1ccnc2[nH]cc(C(=O)c3c(F)ccc(NS(=O)(=O)CC(F)(F)F)c3F)c12 [P-2341, 2,2,2-Trifluoro-ethanesulfonic acid [3-(4-cyano-1H-pyrrolo[2,3-b]pyridine-3-carbonyl)-2,4-difluoro-phenyl]-amide]
not listed: Kdr
≤ 10 µM: all other assays above

COc1ccnc2[nH]cc(C(=O)c3c(F)ccc(NS(=O)(=O)C4CCC4)c3F)c12 [P-2364, Cyclobutanesulfonic acid [2,4-difluoro-3-(4-methoxy-1H-pyrrolo[2,3-b]pyridine-3-carbonyl)-phenyl]-amide]
not listed: Kit
≤ 10 µM: all other assays above

Cc1cnc2[nH]cc(C(=O)c3c(F)ccc(NS(=O)(=O)C4CCCC4)c3F)c2c1 [P-2365, Cyclopentanesulfonic acid [2,4-difluoro-3-(5-methyl-1H-pyrrolo[2,3-b]pyridine-3-carbonyl)-phenyl]-amide]
not listed: B-Raf
≤ 10 µM: all other assays above

O=C(c1c(F)ccc(NS(=O)(=O)C2CCCC2)c1F)c1c[nH]c2nccc(Cl)c12 [P-2368, Cyclopentanesulfonic acid [3-(4-chloro-1H-pyrrolo[2,3-b]pyridine-3-carbonyl)-2,4-difluoro-phenyl]-amide]
not listed: Kit | Kdr
≤ 10 µM: all other assays above

N#Cc1ccnc2[nH]cc(C(=O)c3c(F)ccc(NS(=O)(=O)C4CCCCC4)c3F)c12 [P-2369, Cyclohexanesulfonic acid [3-(4-cyano-1H-pyrrolo[2,3-b]pyridine-3-carbonyl)-2,4-difluoro-phenyl]-amide]
not listed: Kdr
≤ 10 µM: all other assays above

CCN(CC)S(=O)(=O)Nc1ccc(F)c(C(=O)c2c[nH]c3ncc(Cl)cc23)c1F [P-2384, N,N-diethylamino-sulfonic acid [3-(5-chloro-1H-pyrrolo[2,3-b]pyridine-3-carbonyl)-2,4-difluoro-phenyl]-amide]
not listed: C-Raf | B-Raf
≤ 10 µM: all other assays above

CCN(CC)S(=O)(=O)Nc1ccc(F)c(C(=O)c2c[nH]c3ncc(OC)cc23)c1F [P-2389, N,N-diethylamino-sulfonic acid [2,4-difluoro-3-(5-methoxy-1H-pyrrolo[2,3-b]pyridine-3-carbonyl)-phenyl]-amide]
not listed: C-Raf | B-Raf
≤ 10 µM: all other assays above

COc1cnc2[nH]cc(C(=O)c3c(F)ccc(NS(=O)(=O)N4CCOCC4)c3F)c2c1 [P-2391, Morpholine-4-sulfonic acid [2,4-difluoro-3-(5-methoxy-1H-pyrrolo[2,3-b]pyridine-3-carbonyl)-phenyl]-amide]
not listed: B-Raf | Kdr
≤ 10 µM: all other assays above

Cc1cnc2[nH]cc(C(=O)c3c(F)ccc(NS(=O)(=O)N4CCOCC4)c3F)c2c1 [P-2392, Morpholine-4-sulfonic acid [2,4-difluoro-3-(5-methyl-1H-pyrrolo[2,3-b]pyridine-3-carbonyl)-phenyl]-amide]
not listed: B-Raf | Kdr
≤ 10 µM: all other assays above

N#Cc1cnc2[nH]cc(C(=O)c3c(F)ccc(NS(=O)(=O)N4CCOCC4)c3F)c2c1 [P-2393, Morpholine-4-sulfonic acid [3-(5-cyano-1H-pyrrolo[2,3-b]pyridine-3-carbonyl)-2,4-difluoro-phenyl]-amide]
not listed: Kdr
≤ 10 µM: all other assays above

COc1ccnc2[nH]cc(C(=O)c3c(F)ccc(NS(=O)(=O)N4CCOCC4)c3F)c12 [P-2396, Morpholine-4-sulfonic acid [2,4-difluoro-3-(4-methoxy-1H-pyrrolo[2,3-b]pyridine-3-carbonyl)-phenyl]-amide]
not listed: Kit | Kdr
≤ 10 µM: all other assays above

O=C(c1c(F)ccc(NS(=O)(=O)N2CCOCC2)c1F)c1c[nH]c2nccc(Cl)c12 [P-2397, Morpholine-4-sulfonic acid [3-(4-chloro-1H-pyrrolo[2,3-b]pyridine-3-carbonyl)-2,4-difluoro-phenyl]-amide]
not listed: Kit | Kdr
≤ 10 µM: all other assays above
